Experimental data published in patent US20020169126A1, “Compositions and methods for inactivating the Akt oncogene and/or activating the p38 pro-apoptotic gene” (priority 2001, published 2002).
Counter-ions that a name gives are not always drawn. Starred links: 1 amine or outer side, 2 acyl side, 3 side chain; linkers in the order of their positions; H or OH if unused. Positions of bridges follow the written chain, without caps; N, C: chain ends. Non-standard residues stand in square brackets, D forms with d. Residues, ends and D or L forms follow the SMILES beside them. Chains are numbered I, II in the order given. Actinocin(9to1) = Cc1c2oc3c(C)ccc(C(=O)[*:1])c3nc-2c(C(=O)[*:2])c(N)c1=O; NMeV = CN[C@H](C(=O)O)C(C)C; Sar = CNCC(=O)O

Columns and labels:
[1] = cited from earlier work; for dose excreted or recovered in the urine: unchanged, intact or active drug; for absorption: oral
[2] = oral and parental routes; cited from earlier work
Akt = assay: Relative Akt activity (Akt-p versus Akt-c) after blocking p38; assay type: cell-based, human; conditions: 20 μM, 8 hours, E1A stable expressing MDA-MB-231 cells
Method: (§1) In order to determine the relationships between the Akt pathway and the p38 pathway, experiments were performed with inhibitors of both pathways. Wortmannin was used to inhibit the Akt pathway. Wortmannin is a drug that inhibits P13K which is a signal protein that is directly upstream of Akt in the Akt pathway. A synthetic compound, SB203580, was used as a p38 specific inhibitor. Cells were serum starved overnight and were then treated with either SB203580 (20 μM) or Wortmannin (0.1 μM) for 4 hours, 8, hours, 16 hours, 24 hours, 36 hours. When p38 activity was blocked by SB203580 for 8 hours, the Akt activity was increased by approximately 3 fold in E1A stable expressing MDA-MB-231 cells. Whereas, when Akt activity was blocked by Wortmannin for 4 hours, the p38 activity was enhanced to approximately 6 fold. The relative p38 activity (p38-p versus p38-c) and relative Akt activity (Akt-p versus Akt-c) are illustrated in FIG. 2A and FIG. 2B respectively.

breast cancer cells = assay: Sensitization to Taxol-mediated cytotoxicity; assay type: cell-based, human; conditions: blocking p38 activity, together with constitutively active Akt
Method: The indirect measure of the viable cells after exposure to Taxol using the metabolic conversion of tetrazolium salt (MTT) to formazan was used. Cells (3×10^3/well) were seeded in triplicate in 96-well culture plates in 0.2 ml of culture medium and allowed to adhere for 24 h. After exposure to Taxol for a certain period of time, 20 μl of MTT was then added to each well. Cells were cultured for an additional 2 h, and followed by addition of 100 μl of extraction buffer (20% SDS in 50% N,N-dimethyl formamide, pH 4.7). The cells were incubated overnight at 37° C., and the plates were absorbance at 570 nm was measured.

MDA-MB-231 cells = assay: Taxol treatment of 231 vector and 231-E1A tumors in nude mice; assay type: in vivo
Excerpt: To establish orthotopic breast cancer model in nude mice, human MDA-MB-231 cells were inoculated into the mammary fat pad (m.f.p.) of mouse. Tumor size were monitored and caculated on a weekly basis.
Expression of E1A enhanced the anti-tumor effect of the chemotherapeutic drug Taxol in nude mice in vivo and prolonged animal survival rate. […] TUNEL labeling of apoptotic cells in the tumor tissues with or without treatment of Taxol also confirms this. The treatment groups included the SN vehicle, SN-liposome-E1A, Taxol alone, and Taxol plus SN-E1A. At least 7 animals were included in each group.

p38 = assay: Relative p38 activity (p38-p versus p38-c) after blocking Akt; assay type: cell-based, human; conditions: 0.1 μM, 4 hours
Method: as §1

## Cc1c2oc3c(C)ccc(C(=O)N[C@@H]4C(=O)N[C@H](C(C)C)C(=O)N5CCC[C@H]5C(=O)N(C)CC(=O)N(C)[C@@H](C(C)C)C(=O)O[C@@H]4C)c3nc-2c(C(=O)N[C@@H]2C(=O)N[C@H](C(C)C)C(=O)N3CCC[C@H]3C(=O)N(C)CC(=O)N(C)[C@@H](C(C)C)C(=O)O[C@@H]2C)c(N)c1=O [Actinomycin D] (I: T[dV]P[Sar][NMeV] / II: T[dV]P[Sar][NMeV]; ester I:1-I:C, II:1-II:C; linker I:N-II:N via Actinocin(9to1))
[1]; in vivo
  excreted intact into the bile: Half of the dose
[1]
  dose excreted or recovered in the urine: 10%

## O=C(O)CCCc1ccc(N(CCCl)CCCl)cc1 [Chlorambucil, 4-[bis(2-chlorethyl)amino] benzenebutanoic acid]
[1]
  absorption: rapidly and completely absorbed from the gastrointestinal tract

## N.N.[Cl][Pt][Cl] [Cisplatin]
[1]
  absorption: not absorbed orally

## O=P1(N(CCCl)CCCl)NCCCO1 (stereo not shown) [Cyclophosphamide, 2H -1,3,2-Oxazaphosphorin-2-amine, N,N-bis(2-chloroethyl)tetrahydro-, 2-oxide, monohydrate]
[2]
  local tolerance: does not cause local vesication, necrosis, phlebitis or even pain

## COc1cccc2c1C(=O)c1c(O)c3c(c(O)c1C2=O)C[C@@](O)(C(C)=O)C[C@@H]3O[C@H]1C[C@H](N)[C@H](O)[C@H](C)O1 [Daunorubicin, 5,12-Naphthacenedione, (8S-cis)-8-acetyl-10-[(3-amino-2,3,6-trideoxy-a-L-lyxo-hexanopyranosyl)oxy]-7,8,9,10-tetrahydro-6,8,11-trihydroxy-10-methoxy-, hydrochloride]
[1]
  absorption: poor

## COc1cccc2c1C(=O)c1c(O)c3c(c(O)c1C2=O)C[C@@](O)(C(=O)CO)C[C@@H]3O[C@H]1C[C@H](N)[C@H](O)[C@H](C)O1 [Doxorubicin, 5,12-Naphthacenedione, (8s-cis)-10-[(3-amino-2,3,6-trideoxy-a-L-lyxo-hexopyranosyl)oxy]-7,8,9,10-tetrahydro-6,8,11-trihydroxy-8-(hydroxyacetyl)-1-methoxy-hydrochloride]
[1]
  absorption: absorbed poorly

## CO[C@@]12[C@H](COC(N)=O)C3=C(C(=O)C(C)=C(N)C3=O)N1C[C@@H]1N[C@@H]12 [Mitomycin]
[1]
  dose excreted or recovered in the urine: Approximately 10%

## C[S+]([O-])c1ccc(-c2nc(-c3ccncc3)c(-c3ccc(F)cc3)[nH]2)cc1 (stereo not shown) [SB203580]
Akt
  increase of Akt activity: approximately 3 fold
Breast cancer cells
  effect on the ability of E1A to sensitize cells to Taxol-mediated cytotoxicity: partially abrogated

## CC(=O)O[C@H]1C(=O)[C@@]2(C)[C@H]([C@H](OC(=O)c3ccccc3)[C@]3(O)C[C@H](OC(=O)[C@H](O)[C@@H](NC(=O)c4ccccc4)c4ccccc4)C(C)=C1C3(C)C)[C@]1(OC(C)=O)CO[C@@H]1C[C@@H]2O [Taxol]
MDA-MB-231 cells; 231-E1A cells
  therapeutic effect of Taxol in E1A tumors versus vector tumors: more dramatic therapeutic effect
MDA-MB-231 cells; 231 vector and 231-E1A tumors
  tumor growth under Taxol treatment: repressed tumor growth

## CC[C@]1(O)C[C@@H]2CN(CCc3c([nH]c4ccccc34)[C@@](C(=O)OC)(c3cc4c(cc3OC)N(C)[C@H]3[C@@](O)(C(=O)OC)[C@H](OC(C)=O)[C@]5(CC)C=CCN6CC[C@]43[C@@H]65)C2)C1 [Vinblastine]
[1]
  absorption: Unpredictable absorption
  dose excreted or recovered in the urine: Approximately 15%

## CC[C@]1(O)C[C@H]2CN(CCc3c([nH]c4ccccc34)[C@@](C(=O)OC)(c3cc4c(cc3OC)N(C=O)[C@H]3[C@@](O)(C(=O)OC)[C@H](OC(C)=O)[C@]5(CC)C=CCN6CC[C@]43[C@@H]65)C2)C1 [Vincristine]
[1]
  absorption: Unpredictable absorption

## COC[C@H]1OC(=O)c2coc3c2[C@@]1(C)C1=C(C3=O)[C@@H]2CCC(=O)[C@@]2(C)C[C@H]1OC(C)=O [Wortmannin]
p38
  enhancement of p38 activity: approximately 6 fold
